Entries after “also recorded” stand apart in the source; their conditions may differ. Values belong to the molecule of their own block, whether it stands above or below them.
Assays:
A2BAR = biological target: T1, A2BAR (Homo sapiens, UniProt P29275); assay: Functional assay for the A2BAR in CHO cells; format: cell-based; conditions: for functional activity at A2BAR: inactive refers to 10 µM
T1 sequence (P29275 1-332): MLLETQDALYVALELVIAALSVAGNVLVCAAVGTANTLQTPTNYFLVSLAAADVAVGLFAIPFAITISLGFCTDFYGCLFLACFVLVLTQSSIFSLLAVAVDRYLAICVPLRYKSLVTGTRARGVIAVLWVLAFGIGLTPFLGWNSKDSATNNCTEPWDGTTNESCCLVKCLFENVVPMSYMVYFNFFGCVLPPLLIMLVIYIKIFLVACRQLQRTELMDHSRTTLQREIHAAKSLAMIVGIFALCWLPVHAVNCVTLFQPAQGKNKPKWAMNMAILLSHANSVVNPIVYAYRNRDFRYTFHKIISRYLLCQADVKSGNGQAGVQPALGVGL

A1AR = biological target: T2, A1AR (Homo sapiens, UniProt P30542); conditions: cAMP assay
T2 sequence (P30542 1-326): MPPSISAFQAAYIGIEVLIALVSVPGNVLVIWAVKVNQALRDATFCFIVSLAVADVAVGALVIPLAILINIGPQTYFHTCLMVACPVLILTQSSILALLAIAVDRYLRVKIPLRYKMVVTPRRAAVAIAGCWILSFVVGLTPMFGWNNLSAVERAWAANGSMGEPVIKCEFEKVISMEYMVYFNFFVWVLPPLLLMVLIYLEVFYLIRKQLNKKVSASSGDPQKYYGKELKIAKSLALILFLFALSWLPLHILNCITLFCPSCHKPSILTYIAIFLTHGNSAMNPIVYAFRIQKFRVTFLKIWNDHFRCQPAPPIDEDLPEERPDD

hA1AR = biological target: T3, hA1AR (Homo sapiens, UniProt P30542); assay: Radioligand binding at human A1AR, membranes of CHO cells; conditions: for inhibition at 10 µM: read-out: % inhibition at 10 µM A1AR; for % inhibition at 30 µM A1AR: radioligand displacement at 30 µM, bases; for inhibition at 30 µM: read-out: % inhibition at 30 µM A1AR
T3 sequence (P30542 1-326): T2 sequence (P30542 1-326)

hA2AAR = hA2AAR (Homo sapiens, UniProt P29274); assay: Radioligand binding at human A2AAR, membranes of HEK293 cells; conditions: for inhibition at 10 µM: read-out: % inhibition at 10 µM A2AAR; for % inhibition at 30 µM A2AAR: radioligand displacement at 30 µM, bases; for inhibition at 30 µM: read-out: % inhibition at 30 µM A2AAR
A3AR = biological target: T4, A3AR (Homo sapiens, UniProt P0DMS8)
T4 sequence (P0DMS8 1-318): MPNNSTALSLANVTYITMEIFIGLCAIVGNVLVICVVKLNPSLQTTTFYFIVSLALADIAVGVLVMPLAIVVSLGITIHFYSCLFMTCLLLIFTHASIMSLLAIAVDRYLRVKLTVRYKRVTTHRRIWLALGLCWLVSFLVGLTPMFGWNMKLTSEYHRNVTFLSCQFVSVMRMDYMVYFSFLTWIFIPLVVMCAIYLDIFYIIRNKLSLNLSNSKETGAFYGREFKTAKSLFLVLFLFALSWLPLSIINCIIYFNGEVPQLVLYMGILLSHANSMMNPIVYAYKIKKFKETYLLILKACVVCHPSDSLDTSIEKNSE

hA3AR = biological target: T5, hA3AR (Homo sapiens, UniProt P0DMS8); assay: Radioligand binding at human A3AR, membranes of CHO cells; conditions: for % inhibition at 30 µM A3AR: radioligand displacement at 30 µM, bases; for inhibition at 30 µM: read-out: % inhibition at 30 µM A3AR
T5 sequence (P0DMS8 1-318): T4 sequence (P0DMS8 1-318)

hA2AAR, sequence (P29274 whole entry): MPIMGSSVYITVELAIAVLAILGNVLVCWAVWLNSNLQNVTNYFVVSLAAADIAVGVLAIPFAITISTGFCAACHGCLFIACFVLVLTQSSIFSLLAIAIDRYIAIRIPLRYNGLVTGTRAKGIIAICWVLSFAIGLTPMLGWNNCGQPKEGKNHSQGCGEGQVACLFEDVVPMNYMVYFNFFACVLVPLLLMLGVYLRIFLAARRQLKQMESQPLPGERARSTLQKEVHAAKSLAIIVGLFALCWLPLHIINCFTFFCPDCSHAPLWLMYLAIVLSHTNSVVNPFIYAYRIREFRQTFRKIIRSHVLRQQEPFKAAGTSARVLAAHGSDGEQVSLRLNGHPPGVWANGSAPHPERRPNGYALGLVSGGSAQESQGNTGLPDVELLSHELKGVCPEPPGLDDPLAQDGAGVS

functional activity at A2BAR (A2BAR): inactive
Structure (SMILES): Nc1nccc2c1ncn2[C@@H]1O[C@H](CO)[C@@H](O)[C@H]1O [Compound 6, 3-deazaadenosine]
functional activity at A1AR (A1AR): no influence on cAMP levels was detected; also recorded: lost the ability to activate the receptor

inhibition at 10 µM (hA1AR): 15 ± 2%
% inhibition at 10 µM A2AAR (hA2AAR; radioligand displacement at 10 µM, mean ± standard error, three experiments): completely lost affinity
inhibition at 10 µM (hA2AAR): 5 ± 2%
functional activity at A3AR (A3AR; cAMP assay, 10 µM for compound 11): strongly selective agonist
Structure (SMILES): Nc1cccc2c1ncn2[C@@H]1O[C@H](CO)[C@@H](O)[C@H]1O [Compound 7, 1,3-dideazaadenosine]

inhibition at 10 µM (hA2AAR): 34 ± 2%
Emax (A3AR; CHO, read-out: maximal efficacy A3AR): ~30%
Structure (SMILES): Nc1ncn([C@@H]2O[C@H](CO)[C@@H](O)[C@H]2O)c(=O)n1 [Compound 12, 5-azacytidine]

% inhibition at 30 µM A1AR (hA1AR): No significant displacement
inhibition at 30 µM (hA1AR): 19 ± 8%
% inhibition at 30 µM A2AAR (hA2AAR): No significant displacement
inhibition at 30 µM (hA2AAR): 19 ± 8%
% inhibition at 30 µM A3AR (hA3AR): No significant displacement
Structure (SMILES): Nc1ncnc2[nH]cnc12 [Compound 26, adenine]

inhibition at 30 µM (hA2AAR): 40 ± 8%
inhibition at 30 µM (hA3AR): 36 ± 6%
Structure (SMILES): Cn1c(=O)[nH]c2nc[nH]c2c1=O [Compound 28, 1-methylxanthine]

Further lines, the molecule ahead of its results:

Structure (SMILES): Nc1ccnc2c1ncn2[C@@H]1O[C@H](CO)[C@@H](O)[C@H]1O [Compound 5, 1-deazaadenosine]
EC50 (A2BAR): 1500 nM
functional activity at A2BAR (A2BAR): full agonists

Structure (SMILES): Nc1nc(=O)[nH]c2c1ncn2[C@@H]1O[C@H](CO)[C@@H](O)[C@H]1O [Compound 9, isoguanosine]
EC50 (A2BAR): 3100 nM
functional activity at A2BAR (A2BAR): full agonists

Structure (SMILES): Cc1cn([C@@H]2O[C@H](CO)[C@@H](O)[C@H]2O)c(=O)nc1N [Compound 13, 5-methylcytidine]
inhibition at 10 µM (hA1AR): 10 ± 3%
inhibition at 10 µM (hA2AAR): 13 ± 9%

Structure (SMILES): Nc1nc[nH]c(=O)c1Cl [Compound 29, 6-amino-5-chloropyrimidin-4(3H)-one]
% inhibition at 30 µM A1AR (hA1AR): No significant displacement
inhibition at 30 µM (hA1AR): 11 ± 3%
% inhibition at 30 µM A2AAR (hA2AAR): No significant displacement
% inhibition at 30 µM A3AR (hA3AR): No significant displacement
inhibition at 30 µM (hA3AR): 19 ± 5%

Source: PMC5207038 (ACS chemical biology, 2016)
